From patent US20240150334A1, “HSD17B13 INHIBITORS AND/OR DEGRADERS” (Pfizer Inc., priority 2022, published 2024) come the findings set out here.

Structures can show the parent of a compound that is named as a salt.

In assay [1] the target is HSD17B13 enzyme (Homo sapiens (Human), UniProt Q7Z5P4). The assay can be described thus: hHSD17B13 IC50 Assay (FAC beta-estradiol), purified protein enzyme activity assay with NAD(P)H-Glo luciferase readout. The format is biochemical. The following applies: geometric mean, 12 μM FAC beta-estradiol, 500 μM NAD+, read-out: hHSD17B13_IC50 GMean IC50. The method in brief:
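Purified human HSD17B13 (30 nM FAC) incubated with compound, beta-estradiol and NAD+ for 2 h at room temperature in the dark. NADH formation was detected by NAD(P)H-Glo luminescence after 1 h. RLUs normalized to uninhibited enzyme (vehicle) as zero effect.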

The target of assay [2] is wild type human HSD17B13 (Homo sapiens (Human), UniProt Q7Z5P4). The assay can be described thus: HEK_Beta-Est LCMS_IC50_Tekcel, whole-cell HEK-HSD17B13 inhibition assay, estrone production by LCMS. The format is cell-based. As to conditions: geometric mean, HEK cells stably expressing wild type human HSD17B13, 25 μM FAC beta-estradiol, read-out: HEK_Beta-Est LCMS_IC50—Tekcel GMean IC50. The method in brief:
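Readout was LCMS quantitation of estrone made from beta-estradiol with NAD+ as cofactor. Whole HEK-HSD17B13 cells were given compound for 1 hour, then the reaction for 2 hours, both at 37° C. Product area ratios were normalized to vehicle controls as zero percent effect.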

One may read the IC50 as the midpoint of a concentration-inhibition curve.

Sequence of HSD17B13 enzyme (Q7Z5P4 20-300): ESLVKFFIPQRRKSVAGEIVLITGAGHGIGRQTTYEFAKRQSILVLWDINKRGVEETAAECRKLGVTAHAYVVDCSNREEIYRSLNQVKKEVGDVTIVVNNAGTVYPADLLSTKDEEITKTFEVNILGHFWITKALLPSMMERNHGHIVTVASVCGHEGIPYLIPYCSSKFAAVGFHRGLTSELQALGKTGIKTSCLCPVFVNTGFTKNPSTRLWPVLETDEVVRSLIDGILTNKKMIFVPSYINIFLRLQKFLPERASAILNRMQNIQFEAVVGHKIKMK
Sequence of wild type human HSD17B13 (Q7Z5P4 20-300): as above

As to `O=C(NC[C@H]1CC[C@H](n2cc3ccc(-c4ccnnc4)cc3n2)CC1)c1cc(F)c(O)c(F)c1` [Example 71, 3,5-difluoro-4-hydroxy-N-({(1r,4r)-4-[6-(pyridazin-4-yl)-2H-indazol-2-yl]cyclohexyl}methyl)benzamide], the half-inhibitory concentration (IC50) stood at 9.6 nM in assay [1] and 430 nM in assay [2].

Regarding `CC(C)n1cc(-c2ccc3cn([C@H]4CC[C@H](CNC(=O)c5cc(F)c(O)c(F)c5)CC4)nc3c2)cn1` [Example 40, 3,5-difluoro-4-hydroxy-N-{[(1r,4r)-4-{6-[1-(propan-2-yl)-1H-pyrazol-4-yl]-2H-indazol-2-yl}cyclohexyl]methyl} benzamide], the half-maximal inhibitory concentration (IC50) is 4.3 nM in assay [1] and 160 nM in assay [2].

For `Cn1ncc(-c2ccc3cn([C@H]4CC[C@H](CNC(=O)c5cc(F)c(O)c(F)c5)CC4)nc3c2)c1C(F)(F)F` [Example 46, 3,5-difluoro-4-hydroxy-N-{[(1r,4r)-4-{6-[1-methyl-5-(trifluoro-methyl)-1H-pyrazol-4-yl]-2H-indazol-2-yl}cyclohexyl]methyl}benzamide], the IC50 in assay [1] was 9.5 nM; in assay [2], 450 nM.

`N#Cc1ccc(-c2ccc3cn([C@H]4CC[C@H](CNC(=O)c5cc(F)c(O)c(F)c5)CC4)nc3c2)cc1` [Example 70, N-({(1r,4r)-4-[6-(4-cyanophenyl)-2H-indazol-2-yl]cyclohexyl}methyl)-3,5-difluoro-4-hydroxybenzamide]: the values for the IC50 in assay [1] and in assay [2] were 3.8 nM and 190 nM, respectively.

Take `O=C(NC[C@]12CC[C@](c3nc(-c4ccc(C(F)(F)F)nc4)no3)(CC1)CC2)c1cc(F)c(O)c(F)c1` [Example 140, 3,5-difluoro-4-hydroxy-N-[(4-{3-[6-(trifluoromethyl)pyridin-3-yl]-1,2,4-oxadiazol-5-yl}bicyclo[2.2.2]octan-1-yl)methyl] benzamide]: the values for the IC50 in assay [1] and in assay [2] were 16 nM and 220 nM, respectively.

As for `O=C(NC[C@H]1CC[C@H](n2cc3ccc(-c4cnccn4)cc3n2)CC1)c1cc(F)c(O)c(F)c1F` [Example 28, 2,3,5-trifluoro-4-hydroxy-N-({(1r,4r)-4-[6-(pyrazin-2-yl)-2H-indazol-2-yl]cyclohexyl}methyl)benzamide], the concentration for half-maximal inhibition (IC50) stood at 8.7 nM in assay [1] and 170 nM in assay [2].

As to `O=C(NC[C@H]1CC[C@H](c2nc(-c3ccc(C(F)(F)F)cn3)no2)CC1)c1cc(F)c(O)c(F)c1` [Example 2, 3,5-Difluoro-4-hydroxy-N-{[(1r,4r)-4-{3-[5-(trifluoromethyl)pyridin-2-yl]-1,2,4-oxadiazol-5-yl}cyclohexyl]methyl}benzamide], the values for the IC50 in assay [1] and in assay [2] were 12 nM and 470 nM, respectively.

Regarding `O=C(NC[C@H]1CC[C@H](n2cc3ccc(-c4cncnc4)cc3n2)CC1)c1cc(F)c(O)c(F)c1` [Example 76, 3,5-difluoro-4-hydroxy-N-({(1r,4r)-4-[6-(pyrimidin-5-yl)-2H-indazol-2-yl]cyclohexyl}methyl)benzamide], the results for the IC50 in assay [1] and in assay [2] were 19 nM and 190 nM, respectively.

For the compound `O=C(NC[C@]12CC[C@](c3noc(-c4cccc(OS(=O)(=O)F)c4)n3)(CC1)CC2)c1cc(F)c(O)c(F)c1` [Example 190, 3-(3-{4-[(3,5-difluoro-4-hydroxybenzamido)methyl]bicyclo[2.2.2]octan-1-yl}-1,2,4-oxadiazol-5-yl) phenyl sulfurofluoridate], the IC50 in assay [1] amounted to 8.6 nM; in assay [2], 420 nM.

For the compound `O=C(NC[C@]12CC[C@](c3nc(-c4ccc(C(F)(F)F)nc4)no3)(CC1)CC2)c1cc(F)c(O)cc1F` [Example 195, 2,5-difluoro-4-hydroxy-N-[(4-{3-[6-(trifluoromethyl)pyridin-3-yl]-1,2,4-oxadiazol-5-yl}bicyclo [2.2.2]octan-1-yl)methyl]benzamide], the IC50 in assay [1] was determined as 16 nM; in assay [2], 390 nM.

On to `O=C(NC[C@H]1CC[C@H](n2cc3ccc(-c4ncc(C5CC5)cn4)cc3n2)CC1)c1cc(F)c(O)c(F)c1` [Example 54, N-({(1r,4r)-4-[6-(5-cyclopropylpyrimidin-2-yl)-2H-indazol-2-yl]cyclohexyl}methyl)-3,5-difluoro-4-hydroxybenzamide], for which the results for the half-maximal inhibitory concentration (IC50) in assay [1] and in assay [2] were 9.5 nM and 230 nM, respectively.

With `Cn1cc(-c2ccc3cn([C@H]4CC[C@H](CNC(=O)c5cc(F)c(O)c(F)c5)CC4)nc3c2)cn1` [Example 60, 3,5-difluoro-4-hydroxy-N-({(1r,4r)-4-[6-(1-methyl-1H-pyrazol-4-yl)-2H-indazol-2-yl]cyclohexyl}methyl) benzamide], the IC50 in assay [1] is 5.8 nM; in assay [2], 94 nM.

In the case of `O=C(NC[C@]12CC[C@](c3nc(-c4ccc(C(F)(F)F)nn4)no3)(CC1)CC2)c1cc(F)c(O)cc1F` [Example 185, 2,5-difluoro-4-hydroxy-N-[(4-{3-[6-(trifluoromethyl)pyridazin-3-yl]-1,2,4-oxadiazol-5-yl}bicyclo[2.2.2]octan-1-yl)methyl]benzamide], the half-maximal inhibitory concentration (IC50) in assay [1] turned out to be 3.7 nM; in assay [2] it was 140 nM.

Consider `O=C(NC[C@H]1CC[C@H](n2cc3cc(C(F)(F)F)ccc3n2)CC1)c1cc(F)c(O)c(F)c1F` [Example 182, 2,3,5-trifluoro-4-hydroxy-N-({(1r,4r)-4-[5-(trifluoromethyl)-2H-indazol-2-yl]cyclohexyl}methyl) benzamide], for which the IC50 came to 16 nM in assay [1] and 230 nM in assay [2].

Take `Cc1ccc(-c2noc([C@H]3CC[C@H](CNC(=O)c4cc(F)c(O)c(F)c4)CC3)n2)nn1` [Example 211, 3,5-difluoro-4-hydroxy-N-({(1r,4r)-4-[3-(6-methyl-pyridazin-3-yl)-1,2,4-oxadiazol-5-yl]cyclohexyl}methyl) benzamide]: the figures for the half-maximal inhibitory concentration (IC50) in assay [1] and in assay [2] were 15 nM and 2700 nM, respectively.

For the compound `O=C(NC[C@H]1CC[C@H](n2cc3ccc(Cl)cc3n2)CC1)c1cc(F)c(O)cc1F` [Example 144, N-{[(1r,4r)-4-(6-chloro-2H-indazol-2-yl)cyclohexyl]methyl}-2,5-difluoro-4-hydroxybenzamide, trifluoroacetate salt], the half-maximal inhibitory concentration (IC50) stood at 14 nM in assay [1] and 440 nM in assay [2].

For the compound `O=C(NC[C@H]1CC[C@H](n2cc3ccc(-c4cscn4)cc3n2)CC1)c1cc(F)c(O)c(F)c1` [Example 69, 3,5-difluoro-4-hydroxy-N-({(1r,4r)-4-[6-(1,3-thiazol-4-yl)-2H-indazol-2-yl]cyclohexyl}methyl) benzamide], the results for the half-inhibitory concentration (IC50) in assay [1] and in assay [2] were 8.4 nM and 130 nM, respectively.

As for `COc1cnc(-c2noc([C@]34CC[C@](CNC(=O)c5cc(F)c(O)c(F)c5F)(CC3)CC4)n2)cn1` [Example 151, 2,3,5-trifluoro-4-hydroxy-N-({4-[3-(5-methoxypyrazin-2-yl)-1,2,4-oxadiazol-5-yl]bicyclo[2.2.2]octan-1-yl}methyl) benzamide], the IC50 in assay [1] amounted to 8.2 nM; in assay [2], 170 nM.

`N#Cc1cccc(-c2ccc3cn([C@H]4CC[C@H](CNC(=O)c5cc(F)c(O)c(F)c5)CC4)nc3c2)c1` [Example 55, N-({(1r,4r)-4-[6-(3-cyanophenyl)-2H-indazol-2-yl]cyclohexyl}methyl)-3,5-difluoro-4-hydroxybenzamide]: the concentration for half-maximal inhibition (IC50) in assay [1] was determined as 17 nM; in assay [2], 230 nM.

With `Cn1ccc(-c2ccc3c(c2)CN([C@H]2CC[C@H](CNC(=O)c4cc(F)c(O)c(F)c4)CC2)C3=O)n1` [Example 20, 3,5-Difluoro-4-hydroxy-N-({(1r,4r)-4-[5-(1-methyl-1H-pyrazol-3-yl)-1-oxo-1,3-dihydro-2H-isoindol-2-yl]cyclohexyl}methyl)benzamide], the IC50 was found to be 16 nM in assay [1] and 490 nM in assay [2].

On to `O=C(NC[C@]12CC[C@](c3nc(-c4ccc(C(F)(F)F)nn4)no3)(CC1)CC2)c1ccc(O)c(F)c1F` [Example 180, 2,3-difluoro-4-hydroxy-N-[(4-{3-[6-(trifluoromethyl)pyridazin-3-yl]-1,2,4-oxadiazol-5-yl}bicyclo[2.2.2]octan-1-yl)methyl]benzamide], for which the IC50 in assay [1] turned out to be 11 nM; in assay [2], 470 nM.

Take `O=C(NC[C@H]1CC[C@H](n2cc3ccc(-c4ccncc4)cc3n2)CC1)c1cc(F)c(O)c(F)c1` [Example 61, 3,5-difluoro-4-hydroxy-N-({(1r,4r)-4-[6-(pyridin-4-yl)-2H-indazol-2-yl]cyclohexyl}methyl)benzamide]: the figures for the IC50 in assay [1] and in assay [2] were 4.8 nM and 120 nM, respectively.

In the case of `O=C(NC[C@H]1CC[C@H](n2cc3ccc(Cl)cc3n2)CC1)c1cc(F)c(O)c(F)c1` [Example 135, N-{[(1r,4r)-4-(6-chloro-2H-indazol-2-yl)cyclohexyl]methyl}-3,5-difluoro-4-hydroxybenzamide, ammonium salt], the IC50 in assay [1] turned out to be 21 nM; in assay [2], 250 nM.

Turning to `COc1ccc2nn([C@H]3CC[C@H](CNC(=O)c4cc(F)c(O)c(F)c4)CC3)cc2c1` [Example 129, 3,5-difluoro-4-hydroxy-N-{[(1r,4r)-4-(5-methoxy-2H-indazol-2-yl)cyclohexyl]methyl}benzamide], the IC50 worked out at 33 nM in assay [1] and 400 nM in assay [2].

As for `O=C(NC[C@H]1CC[C@H](n2cc3ccc(-c4cnn(C5CCOCC5)c4)cc3n2)CC1)c1cc(F)c(O)c(F)c1` [Example 12, 3,5-Difluoro-4-hydroxy-N-{[(1r,4r)-4-{6-[1-(oxan-4-yl)-1H-pyrazol-4-yl]-2H-indazol-2-yl}cyclohexyl]methyl}benzamide], the 50% inhibitory concentration (IC50) worked out at 11 nM in assay [1] and 290 nM in assay [2].
